Data on eight compounds can be found in US8053581B2, “Trisubstituted thiazole compounds, preparations methods, pharmaceutical compositions and medicals uses thereof” (Institute of Pharmacology and Toxicology Academy of …, priority 2006, dated 2011).

SMILES strings stand for the structures.

Series [1] addresses T1, PLTP (Homo sapiens, UniProt P55058).
T1 construct: from tissue
Description: Determination of PLTP inhibition activity (radiolabelled phospholipid liposome to HDL transfer with plasma). In kind it is biochemical. To be noted: for inhibition at 250 µM: Concentration of compounds 250 μM; for inhibition at 500 µM: Concentration of compounds 500 μM. As to the method: 30 μl (about 1000 cpm/μl) phospholipids liposome, 30 μl HDL ([…]), 337 μl TSE and 3 μl plasma were mixed, incubated in 37° C. water-bath for 1 hour, and then added 300 μl of a settling solution (50 ml solution preparation: 5.36 ml 5N NaCl, 9.075 ml 2M MnCl2 and 46 mg liver phospholipid were mixed, added water to 50 ml), the solution was stood at room temperature for 10 minutes, rotated at high speed for 10 minutes (to remove phospholipids liposome), 500 μl of the supernatant was sampled and counted. PLTP activity (cpm/h/3 μl)=sample cpm-background cpm.

Series [2] deals with T2, CETP (Homo sapiens, UniProt P11597).
T2 sequence (P11597 18-493): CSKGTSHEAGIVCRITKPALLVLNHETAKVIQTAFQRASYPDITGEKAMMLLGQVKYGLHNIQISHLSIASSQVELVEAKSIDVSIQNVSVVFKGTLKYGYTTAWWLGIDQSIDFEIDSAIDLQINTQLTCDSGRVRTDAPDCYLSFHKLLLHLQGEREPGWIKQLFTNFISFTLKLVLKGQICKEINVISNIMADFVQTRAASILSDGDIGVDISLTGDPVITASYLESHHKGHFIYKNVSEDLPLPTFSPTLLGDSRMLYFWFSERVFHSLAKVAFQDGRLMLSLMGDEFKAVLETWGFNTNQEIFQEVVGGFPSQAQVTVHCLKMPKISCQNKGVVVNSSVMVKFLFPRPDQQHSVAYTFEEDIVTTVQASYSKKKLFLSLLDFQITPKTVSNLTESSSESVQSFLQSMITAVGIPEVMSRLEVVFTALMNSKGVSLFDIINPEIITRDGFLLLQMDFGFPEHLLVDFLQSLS
The series is described as follows: Determination of CETP inhibition activity (fluorescent donor/acceptor transfer). In kind it is biochemical. To be noted: for inhibition at 500 µM: Concentration of compounds 500 μM, read-out: CETP inhibition activity Inhibition rate(%). How it is done:
A mixture containing 3 μl of a donor, 9 μl of an acceptor (250 μg protein), 3 μl of CETP solution and 85 μl of an analytic buffer, 10 mM Tris, 0.15 M NaCl and 2 mM EDTA, pH 7.4 was incubated at 37° C. for 0.5 hours, the fluorescence intensity was determined on Victor 3 double illuminometer/fluorescence counter (Perkin Elmer) carrying […] light wave length.

In series [3] the target is T2, CETP. Conditions: reported in WO 2002068450; read-out: Ki value to inhibit CETP; cited from earlier work.
In series [4] the target is T1, PLTP. Conditions: reported in WO 2002068450; read-out: Ki value to inhibit PLTP; cited from earlier work.
Setting [5] is: read-out: PLTP inhibition activity Inhibition rate(%).

T1 sequence (P55058 18-493, species assumed): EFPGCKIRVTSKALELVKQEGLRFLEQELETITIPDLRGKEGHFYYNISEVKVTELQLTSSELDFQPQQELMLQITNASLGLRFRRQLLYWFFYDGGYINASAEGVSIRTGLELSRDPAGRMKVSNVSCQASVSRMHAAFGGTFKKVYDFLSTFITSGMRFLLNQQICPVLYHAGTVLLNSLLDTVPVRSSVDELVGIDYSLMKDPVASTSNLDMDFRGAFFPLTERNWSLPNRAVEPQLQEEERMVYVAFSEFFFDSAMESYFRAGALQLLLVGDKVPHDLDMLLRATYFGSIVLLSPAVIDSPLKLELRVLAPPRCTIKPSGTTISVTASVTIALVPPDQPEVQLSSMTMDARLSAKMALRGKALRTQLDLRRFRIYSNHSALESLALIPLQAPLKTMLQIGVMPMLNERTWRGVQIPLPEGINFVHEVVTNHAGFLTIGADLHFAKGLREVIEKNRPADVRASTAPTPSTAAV

The term IC50 denotes the concentration needed to halve the response being measured. A higher IC50 goes with lower potency. Broadly, the inhibition is the change of the read-out against control, counted positive when it falls. The term melting point denotes the temperature, or range, at which the solid turns liquid. Regarding `O=C(Nc1nc(-c2ccc(O)cc2)c(CCc2ccccc2)s1)c1ccc(O)c(O)c1` [Example 60, 3,4-dihydroxy-N-[4-(4-hydroxy-phenyl)-5-phenylethyl-thiazol-2-yl]-benzamide], the melting point was in the range of 208 to 209 °C. For the same compound, it took 35 µM to reach half-maximal inhibition in series [1] (IC50). Further, the inhibition at 250 µM in series [1] (setting [5]) came to 97%. For the same compound, in series [2], the inhibition at 500 µM turned out to be 0%.

As to `CCCCc1sc(N)nc1-c1ccc(OC)cc1` [Example 62, 4-(4-methoxy-phenyl)-5-n-butyl-thiazol-2-ylamine], the melting point was in the range of 118 to 119 °C. For the same compound, the inhibition at 250 µM in series [1] (setting [5]) is 15.3%. Besides, the inhibition at 500 µM in series [2] came out at 65.4%.

On to `CCCCc1sc(NC(=O)c2ccc(O)c(O)c2)nc1-c1ccc(O)cc1` [Example 65, N-[5-n-butyl-4-(4-hydroxy-phenyl)-thiazol-2-yl]-3,4-dihydroxy-benzamide], for which the melting point was in the range of 189 to 190 °C. In series [1], this compound had an IC50 of 75 µM. Besides, the inhibition at 250 µM in series [1] (setting [5]) came to 93.4%. The inhibition at 500 µM in series [2] was 0%.

The compound `CCCCc1sc(NC(=O)c2cc(O)c(O)c(O)c2)nc1-c1ccc(O)cc1` [Example 66, N-[5-n-butyl-4-(4-hydroxy-phenyl)-thiazol-2-yl]-3,4,5-trihydroxy-benzamide] gave a melting point of 119 to 120 °C. In addition, in series [1], the IC50 amounted to 75 µM. The inhibition at 250 µM in series [1] (setting [5]) was 100%. Besides, the inhibition at 500 µM in series [2] was 27.3%.

`O=C(CCc1ccc(O)c(O)c1)Nc1nc(-c2ccc(O)cc2)c(Cc2ccccc2)s1` [Example 69, N-[5-benzyl-4-(4-hydroxy-phenyl)-thiazol-2-yl]-3-(3,4-dihydroxy-phenyl)-propanamide] returned a melting point of 94 to 95 °C. Also, in series [1], the IC50 came out at 75 µM. In series [1] (Concentration of compounds 150 μM, read-out: PLTP inhibition activity Inhibition rate(%)), the inhibition at 150 µM is 75.7%. For the same compound, in series [2], the inhibition at 500 µM is 25.3%.

`COc1ccc(-c2nc(N3CCOCC3)sc2Cc2ccccc2)cc1` [Example 70, 4-[5-benzyl-4-(4-methoxy-phenyl)-thiazol-2-yl]-morpholine]: the melting point was 88 to 89 °C. In series [1] (setting [5]), the inhibition at 500 µM was 61%. In series [2], the midpoint of inhibition, the IC50, lay at 75 µM and the inhibition at 500 µM came out at 91.6%.

Compound `COc1ccc(-c2nc(N3CCNCC3)sc2Cc2ccccc2)cc1.Cl.Cl.Cl` [Example 72, 1-[5-benzyl-4-(4-methoxy-phenyl)-thiazol-2-yl]-piperazine trihydrochloride] displayed a melting point of 111 to 112 °C. For the same compound, the inhibition at 500 µM in series [1] (setting [5]) was determined as 100%. In series [2], the inhibition at 500 µM stood at 74.5%.

The Ki is a dissociation constant, usually derived from enzyme kinetics or from competition with a known ligand. Consider `CC(C)(C)C(=O)Nc1ccccc1SSc1ccccc1NC(=O)C(C)(C)C` [N-{2-[2-(2,2-dimethyl-propanamido)-phenyldithio]-phenyl}-2,2-dimethyl-propanamide], for which the Ki in series [3] was 13 µM; in series [4], 15 µM.
